Experimental data as given in patent publication US8258118B2, “4-pyridinone compounds and their use for cancer” (Bristol-Myers Squibb Company, priority 2008, dated 2012).

Columns and labels:
GST-Met kinase = biological target: T1, GST-Met kinase (Homo sapiens, UniProt P08581); test: Met kinase assay; assay type: biochemical
T1 construct: made in house
Method: Incubation mixtures employed for the Met kinase assay contain a baculovirus expressed GST-Met kinase, the synthetic substrate polyGlu:Tyr, (4:1), ATP, ATP-γ-^33P and buffer containing Mn^+2, DTT, BSA, and Tris. Reactions were incubated for 60 minutes at 30° C. and stopped by the addition of cold trichloroacetic acid (TCA) to a final concentration 8%. TCA precipitates were collected onto GF/C UniFilter plates (Packard Instrument Co., Meriden, Conn.) using a FILTERMATE® universal harvester (Packard Instrument Co., Meriden, Conn.) and the filters are quantitated using a TopCount 96/384-well liquid scintillation counter (Packard Instrument Co., Meriden, Conn.). Dose response curves were generated to determine the concentration required to inhibit 50% of kinase activity (IC50). Compounds were dissolved at 10 mM in dimethyl sulfoxide (DMSO) and evaluated at ten concentrations, each in duplicate. The final concentration of DMSO in the assay is 1.7%. IC50 values were derived by non-linear regression.

GTL-16 cells = test: GTL-16 gastric carcinoma proliferation assay (MTS); assay type: cell-based; details: Homo sapiens, 72 h, 0.5% fetal calf serum
Method: Inhibition of GTL-16 cell growth was assessed by a MTS assay using a CELLTITER 96® Aqueous Non-Radioactive Proliferation Assay kit from Promega. The kit is composed of solutions of a novel tetrazolium compound (3-(4,5-dimethylthiazol-2-yl)-5-(3-carboxymethoxyphenyl)-2-(4-sulfophenyl)-2H-tetrazolium, inner salt; MTS) and an electron coupling reagent (phenazine methosulfate, PMS). In this colormetric assay, the conversion of MTS into aqueous, soluble formazan is accomplished by dehydrogenase enzymes found in metabolically active cells. The quantity of formazan product as measured by its absorbance at 490 nm is directly proportional to the number of living cells in culture.
GTL-16 cells were inoculated into 96 well microtiter plates in 0.5% fetal calf serum and incubated at 37° C., 5% CO2, 95% air and 100% relative humidity for 24 h prior to addition of a compound. At the time of drug treatment, one plate of the cell line was processed using the above kit to represent a measurement of the cell population at the time of drug addition. Following drug treatment, the plates were incubated for an additional 72 h before processing, and measuring cell populations. Each compound was tested at 8 different concentrations in triplicate, as was the untreated control sample. Growth inhibition of 50% (IC50) is calculated by analysis of the data in Excel that uses a 4 parameter logistic equation with data fitted using the Levenburg Marquardt algorithm

VEGFR-2 = VEGFR-2 (Homo sapiens, UniProt P35968); test: VEGFR-2 kinase assay; assay type: biochemical
VEGFR-2, sequence (P35968 20-1356): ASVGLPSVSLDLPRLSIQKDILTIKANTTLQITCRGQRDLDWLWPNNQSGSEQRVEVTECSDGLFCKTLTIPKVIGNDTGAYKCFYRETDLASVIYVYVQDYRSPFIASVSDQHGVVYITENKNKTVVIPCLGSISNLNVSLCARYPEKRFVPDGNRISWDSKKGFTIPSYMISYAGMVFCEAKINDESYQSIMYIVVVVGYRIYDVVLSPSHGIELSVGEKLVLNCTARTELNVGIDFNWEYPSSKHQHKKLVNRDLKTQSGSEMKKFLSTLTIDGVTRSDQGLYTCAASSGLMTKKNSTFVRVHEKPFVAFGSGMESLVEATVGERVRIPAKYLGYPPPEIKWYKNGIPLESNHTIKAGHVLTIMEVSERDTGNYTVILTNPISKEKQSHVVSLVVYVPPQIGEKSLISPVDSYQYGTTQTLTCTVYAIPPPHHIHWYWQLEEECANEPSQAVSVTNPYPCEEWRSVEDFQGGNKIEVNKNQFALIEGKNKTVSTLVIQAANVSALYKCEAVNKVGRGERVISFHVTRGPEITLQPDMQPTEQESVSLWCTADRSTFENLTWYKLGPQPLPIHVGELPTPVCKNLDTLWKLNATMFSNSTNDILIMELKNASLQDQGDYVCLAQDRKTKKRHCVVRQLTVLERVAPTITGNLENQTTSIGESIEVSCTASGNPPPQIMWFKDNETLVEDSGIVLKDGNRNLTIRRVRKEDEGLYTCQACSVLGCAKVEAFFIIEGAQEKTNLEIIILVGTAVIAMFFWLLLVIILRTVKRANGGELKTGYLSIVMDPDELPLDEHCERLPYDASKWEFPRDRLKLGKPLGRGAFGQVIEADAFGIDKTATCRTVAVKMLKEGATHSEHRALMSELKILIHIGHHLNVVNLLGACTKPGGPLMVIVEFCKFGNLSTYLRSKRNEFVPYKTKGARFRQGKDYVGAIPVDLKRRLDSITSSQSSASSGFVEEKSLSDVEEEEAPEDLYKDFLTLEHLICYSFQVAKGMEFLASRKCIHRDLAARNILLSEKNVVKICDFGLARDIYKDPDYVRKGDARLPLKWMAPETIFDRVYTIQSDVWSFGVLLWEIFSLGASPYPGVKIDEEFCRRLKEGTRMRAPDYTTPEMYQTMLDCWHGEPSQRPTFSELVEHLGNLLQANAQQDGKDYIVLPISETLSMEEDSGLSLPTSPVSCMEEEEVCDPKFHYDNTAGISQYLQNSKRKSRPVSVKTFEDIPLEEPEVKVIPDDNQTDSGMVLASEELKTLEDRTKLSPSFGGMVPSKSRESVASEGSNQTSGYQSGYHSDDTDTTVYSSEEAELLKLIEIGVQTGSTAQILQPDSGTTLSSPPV
Method: Incubation mixtures employed for the VEGFR-2 assay contain the synthetic substrate poly glu/tyr, (4:1), ATP, ATP-γ-^33P and buffer containing Mn^+2, DTT, BSA, and Tris buffer. The reaction is initiated by addition of enzyme and after 60 minutes at room temperature is terminated by the addition of 30% TCA to a final concentration of 15% TCA. Inhibitors are brought to 10 mM in 100% DMSO. Assays are prepared in a 96 well format in quadruplicate. Compounds are diluted 1:500 in 100% DMSO and then 1:10 in water for a final DMSO concentration of 10%. Aliquots (10 μL) are added to rows B-H in a 96 well format of 10% DMSO. The compound (20 μl) is added to row A at a concentration 5 fold higher than running conditions. Aliquots (10 μL) are transferred to each row followed by six serial dilutions with mixing, and at row F 10 μL are discarded. Row G is a control with no compound and row H is no compound and no enzyme control. Enzyme and substrate are delivered using a Tomtec Quadra station.
Plates are covered with sticky plate tops, incubated at 27° C. for 60 minutes, and then acid precipitated with TCA for 20 minutes on ice. […] Activity is determined by quantitating the incorporated radioactivity using a Packard TopCount Microplate Scintillation Counter following the addition of Microscint-20 cocktail into each dried well of the UniFilter microplates.

[1] = tested on: GTL-16 gastric carcinoma xenografts; test: In vivo efficacy, GTL-16 human gastric tumor xenograft model; details: for overt toxicity: administered once daily for 14 days, any of the dose levels
Method: N-(4-(2-Amino-3-chloropyridin-4-yloxy)-3-fluorophenyl)-5-(4-fluorophenyl)-4-oxo-1,4-dihydropyridine-3-carboxamide (Example 1) and (3-(4-(2-amino-3-chloropyridin-4-yloxy)-3-fluorophenylcarbamoyl)-5-(4-fluorophenyl)-4-oxopyridin-1(4H)-yl)methyl dihydrogen phosphate (Example 2) were evaluated for in vivo efficacy against the GTL-16 human gastric tumor xenograft model. Example 2 is a prodrug of Example 1.

[2] = tested on: U87 glioblastoma xenografts; test: In vivo efficacy, U87 glioblastoma xenograft model; details: 25 mg/kg, dosed orally once daily for 14 days
Method: Example 1 was also tested in the U87 glioblastoma model, a Met driven tumor based on an HGF autocrine mechanism of Met activation.

T1 sequence (P08581 25-1390): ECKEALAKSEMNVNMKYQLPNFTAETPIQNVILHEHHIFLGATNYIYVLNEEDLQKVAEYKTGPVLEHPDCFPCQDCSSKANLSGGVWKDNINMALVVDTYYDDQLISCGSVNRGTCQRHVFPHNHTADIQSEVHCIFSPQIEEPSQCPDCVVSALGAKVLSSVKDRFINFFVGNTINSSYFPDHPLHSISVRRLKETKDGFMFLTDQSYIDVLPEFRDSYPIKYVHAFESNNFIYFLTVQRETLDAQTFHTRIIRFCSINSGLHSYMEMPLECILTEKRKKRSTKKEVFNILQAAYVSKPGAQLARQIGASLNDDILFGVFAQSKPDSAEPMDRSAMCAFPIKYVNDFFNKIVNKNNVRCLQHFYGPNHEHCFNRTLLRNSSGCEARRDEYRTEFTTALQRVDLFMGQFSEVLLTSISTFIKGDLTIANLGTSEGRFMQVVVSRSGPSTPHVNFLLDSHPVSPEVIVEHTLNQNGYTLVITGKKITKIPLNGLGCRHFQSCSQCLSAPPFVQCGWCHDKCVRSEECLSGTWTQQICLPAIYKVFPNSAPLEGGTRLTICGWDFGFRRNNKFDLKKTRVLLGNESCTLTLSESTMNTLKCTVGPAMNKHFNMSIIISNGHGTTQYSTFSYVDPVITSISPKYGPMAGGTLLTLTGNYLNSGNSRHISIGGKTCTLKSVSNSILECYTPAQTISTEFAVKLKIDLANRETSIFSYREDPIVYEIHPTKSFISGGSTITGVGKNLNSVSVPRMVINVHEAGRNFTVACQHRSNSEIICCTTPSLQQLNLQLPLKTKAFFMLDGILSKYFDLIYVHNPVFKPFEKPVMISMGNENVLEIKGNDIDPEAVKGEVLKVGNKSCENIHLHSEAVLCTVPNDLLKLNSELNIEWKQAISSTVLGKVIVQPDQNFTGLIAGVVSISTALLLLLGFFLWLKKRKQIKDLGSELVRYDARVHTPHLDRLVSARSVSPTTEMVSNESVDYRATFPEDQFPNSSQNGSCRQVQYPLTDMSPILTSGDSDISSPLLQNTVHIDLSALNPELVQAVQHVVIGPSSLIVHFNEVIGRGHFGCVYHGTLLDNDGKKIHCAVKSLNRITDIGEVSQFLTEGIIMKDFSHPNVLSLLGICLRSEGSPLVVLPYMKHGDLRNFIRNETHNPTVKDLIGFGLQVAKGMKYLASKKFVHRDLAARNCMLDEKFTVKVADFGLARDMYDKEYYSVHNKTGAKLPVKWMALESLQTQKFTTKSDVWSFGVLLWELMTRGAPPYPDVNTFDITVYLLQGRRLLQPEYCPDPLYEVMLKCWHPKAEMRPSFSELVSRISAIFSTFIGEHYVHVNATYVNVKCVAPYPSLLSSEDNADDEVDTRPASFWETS

Row | Compound | IC50 (GST-Met kinase) [nM] | IC50 (GTL-16 cells) [nM] | IC50 (VEGFR-2) [nM] | antitumor activity (tumor stasis) ([1]; 25 mg/kg of Example 1, once daily for 14 days) | overt toxicity [1] | antitumor activity (tumor stasis) [2] | antitumor activity (tumor stasis) ([1]; 31.2 mg/kg of Example 2 (equimolar to 25 mg/kg Example 1), once daily for 14 days)
1 | Nc1cc(Oc2ccc(NC(=O)c3c[nH]cc(Cc4ccccc4)c3=O)cc2F)ccn1 [Compound A, N-(4-(2-Aminopyridin-4-yloxy)-3-fluorophenyl)-5-benzyl-4-oxo-1,4-dihydropyridine-3-carboxamide] | 160 | 5400 | – | – | – | – | –
2 | Nc1nccc(Oc2ccc(NC(=O)c3c[nH]cc(-c4ccc(F)cc4)c3=O)cc2F)c1Cl [Example 1, N-(4-(2-Amino-3-chloropyridin-4-yloxy)-3-fluorophenyl)-5-(4-fluorophenyl)-4-oxo-1,4-dihydropyridine-3-carboxamide] | 1.7 | 39 | 15 | complete tumor stasis | No overt toxicity | complete tumor stasis | –
3 | Nc1cc(Oc2ccc(NC(=O)c3cccn(-c4ccc(F)cc4)c3=O)cc2F)ccn1 [Compound B, N-(4-(2-Aminopyridin-4-yloxy)-3-fluorophenyl)-1-(4-fluorophenyl)-2-oxo-1,2-dihydropyridine-3-carboxamide] | 4.8 | 170 | 40 | – | – | – | –
4 | Nc1nccc(Oc2ccc(NC(=O)c3cn(COP(=O)(O)O)cc(-c4ccc(F)cc4)c3=O)cc2F)c1Cl [Example 2, (3-(4-(2-Amino-3-chloropyridin-4-yloxy)-3-fluorophenylcarbamoyl)-5-(4-fluorophenyl)-4-oxopyridin-1(4H)-yl)methyl dihydrogen phosphate] | – | – | – | – | No overt toxicity | – | complete tumor stasis
